Experimental data taken from publication PMC12181424, “A genetically tractable branch of environmental Pedobacter from the phylum Bacteroidota represents a hotspot for natural product discovery” (Scientific Reports, 2025).
Non-standard residues stand in square brackets, D forms with d. Residues, ends and D or L forms follow the SMILES beside them. *: point of attachment. Isovaleryl = CC(C)CC(=O)*; ΔVal = CC(C)=C(N)C(=O)O; X1 = CC[C@H](C)C(=O)*

Columns and labels:
[1] = test system: P. cryoconitis DSM 14825^T; assay: Antibiotic sensitivity screen of wild-type strain (choice of selection marker); type: cell-based, Pedobacter cryoconitis; conditions: P. cryoconitis DSM 14825^T wild type
From the text: (§1) We built a random transposon insertion plasmid (pCRYO1 (Fig. S2)) based on a HIMAR transposon pSAMbt system, initially designed for Bacteroides thetaiotaomicron in which we introduced the constitutive P. cryoconitis promoters of gyrB and rpl13 and used erythromycin as a resistance marker[41] (Fig. 3A). We obtained erythromycin-resistant clones by conjugation and electroporation and confirmed the presence of the ermR gene by colony PCR (Material and Methods).
(§2) To genetically modify P. cryoconitis, we first screened different antibiotics (streptomycin, ampicillin, kanamycin, apramycin, chloramphenicol, and erythromycin) against P. cryoconitis PAMC 27485 and P. cryoconitis DSM 14825^T. Only erythromycin (100 µg/ml) and chloramphenicol (150 µg/ml) were effective and selected as markers. A transposon plasmid, pCRYO-01 was modified based on pSAM bt[30] by assembling PCR-amplified regions upstream of the P. cryoconitis PAMC 27485 gyrB (AMQ00279.1, 228 bps) and rpl13 genes (AMQ00867.1, 178 bps) with the erythromycin resistance (ermR) and the transposase genes via Gibson Assembly. PCR reactions were carried out using Q5 polymerase (New England Biolabs) as specified by the manufacturer. Conjugation experiments were performed using E. coli WM3064/pCRYO-01 and P. cryoconitis (overnight cultures) on LB, POM, and R2A (with 5 mM final MgCl2) agar with different donor-recipient ratios (1:1, 2:1, 3:1) for 48 h. Cells were scraped off, serially diluted, and plated on R2A agar plates with erythromycin (50, 100, 150, and 200 µg/ml). Erythromycin-resistant colonies were tested for ermR presence and plasmid backbone absence by colony PCR. A 3:1 donor-recipient ratio at 23 °C yielded the highest number of transformants. Dilution of the inoculum at 10^− 1 or 10^− 2 was optimal for single colonies, with more transformants observed in P. cryoconitis PAMC 27485 compared to P. cryoconitis DSM 14825^T. For electroporation, P. cryoconitis PAMC 27485 cells (OD 0.4) were made competent by washing 3-times with ice-cold 10% glycerol (centrifugation at 5000 rpm). Aliquots of 50 µl were mixed with pCRYO1. After electroporation (12.5 kV/cm), cells were cultured without antibiotics for 5 h, then plated on R2A with 150 µg/ml erythromycin. Colonies appeared within 3 days, with 100% carrying the transposon cassette, though efficiency was lower than with conjugation. Electroporation of competent cells stored at -80 °C was also possible.

[2] = test system: P. cryoconitis PAMC 27485; assay: as above; type: cell-based, Pedobacter cryoconitis; conditions: P. cryoconitis PAMC 27485 wild type
From the text: as §1, §2

[3] = test system: Escherichia coli ATCC35218; type: cell-based
[4] = test system: Mycobacterium smegmatis ATCC607; type: cell-based
[5] = test system: Staphylococcus aureus ATCC33592; type: cell-based
Candida albicans FH2173 = type: cell-based
[6] = test system: Septoria tritici MUCL45407; type: cell-based
[7] = test system: bacterial and fungal indicator strains; assay: Screening against bacterial and fungal indicator strains (whole panel, as summarised in the text); type: cell-based; conditions: summary in the text of Table S11; no growth inhibitory effects
[8] = test system: human cysteine protease cathepsin B; assay: Cysteine protease inhibition testing; type: biochemical; conditions: tested concentration 20 µM; procedure of Brinkmann et al.
[9] = test system: human cysteine protease cathepsin L; assay: Cysteine protease inhibition testing; type: biochemical; conditions: tested concentration 20 µM; procedure of Brinkmann et al.
rhodesain = conditions: tested concentration 20 µM; procedure of Brinkmann et al.
From the text: The cryopeptins are linear lipopeptides containing the non-proteinogenic amino acid dehydrovaline. This amino acid is a rare building block, and its occurrence is yet limited to linear peptides. For instance, dehydrovaline is found in cytotoxic yakuamides from the sponge Ceratopsion sp[42]. and in the myxobacterial antibiotic myxovalargin[43]. […] In addition, 4 and 5 underwent screening against the human cysteine proteases cathepsin B and L, and rhodesain, the cysteine protease of Trypanosoma brucei rhodesiense according to the procedure described in[45].
The minimum inhibitory concentrations (MIC) of pure compounds were determined as described by Orban et al.3 Pure compounds were screened against Escherichia coli ATCC35218, Mycobacterium smegmatis ATCC607, Staphylococcus aureus ATCC33592, Candida albicans FH2173 and Septoria tritici MUCL45407. Protease testings (human cysteine proteases cathepsin B and L, trypanosomal cysteine protease rhodesain) were performed at concentrations of 20 μM as described in Brinkmann et al.4.

Row | Compound | concentration that inhibited the growth of the wild-type strain [1] | concentration that inhibited the growth of the wild-type strain [2] | MIC Escherichia coli ATCC 35218 [3] | MIC Myobacterium smegmatis ATCC607 [4] | MIC Staphylococcus aureus ATCC 33592 [5] | MIC Candida albicans FH2173 (Candida albicans FH2173) | MIC Septoria tritici MUCL45407 [6] | Minimal inhibitory concentration against bacterial and fungal indicator strains [7] | protease inhibitory activity, cathepsin B [8] | protease inhibitory activity, cathepsin L [9] | protease inhibitory activity, rhodesain (rhodesain)
1 | O=C(N[C@H](CO)[C@H](O)c1ccc([N+](=O)[O-])cc1)C(Cl)Cl [chloramphenicol] | 150 µg/mL | 150 µg/mL | – | – | – | – | – | – | – | – | –
2 | CC[C@H](C)C(=O)N[C@@H](Cc1ccccc1)C(=O)NC(C(=O)N[C@@H](CCCNC(=N)N)C(=O)NC(C(=O)N[C@@H](CC(C)C)C(=O)O)=C(C)C)=C(C)C [cryopeptin D (4)] (X1-F[ΔVal]R[ΔVal]L-OH) | – | – | >128 µg/mL | >128 µg/mL | >128 µg/mL | >128 µg/mL | >128 µg/mL | > 128 µg/mL | no protease inhibitory activity was observed | no protease inhibitory activity was observed | no protease inhibitory activity was observed
3 | CC(C)=C(NC(=O)[C@H](Cc1ccccc1)NC(=O)CC(C)C)C(=O)N[C@@H](CCCNC(=N)N)C(=O)NC(C(=O)N[C@@H](CC(C)C)C(=O)O)=C(C)C [cryopeptin E (5)] (Isovaleryl-F[ΔVal]R[ΔVal]L-OH; N-terminus and C-terminus assumed) | – | – | >128 µg/mL | >128 µg/mL | >128 µg/mL | >128 µg/mL | >128 µg/mL | – | no protease inhibitory activity was observed | no protease inhibitory activity was observed | no protease inhibitory activity was observed
4 | CC[C@H]1OC(=O)[C@H](C)[C@@H](O[C@H]2C[C@@](C)(OC)[C@@H](O)[C@H](C)O2)[C@H](C)[C@@H](O[C@@H]2O[C@H](C)C[C@H](N(C)C)[C@H]2O)[C@](C)(O)C[C@@H](C)C(=O)[C@H](C)[C@@H](O)[C@]1(C)O [erythromycin] | 100 µg/mL | 100 µg/mL | – | – | – | – | – | – | – | – | –
